What was measured:
Assay type in all cases: in vivo
[1] = tested on: barnyardgrass (Echinochloa crus-galli); experiment: Test A preemergence, directed soil spray, visual injury rating; settings: 0 is no effect, 100 is complete control
How it was run: (§1)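 Compounds in a surfactant-containing solvent were applied as a directed soil spray preemergence, or postemergence to plants 2-10 cm tall at the one- to two-leaf stage, in loam-sand blend. After about 10 d in the greenhouse, injury was rated visually against untreated controls on a 0-100 scale (100 = complete control).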

[2] = tested on: foxtail, giant (giant foxtail, Setaria faberii); experiment: as above; settings: 0 is no effect, 100 is complete control
How it was run: as §1

kochia (Kochia scoparia) [3] = experiment: as above; settings: 0 is no effect, 100 is complete control
How it was run: as §1

[4] = tested on: pigweed (Amaranthus retroflexus); experiment: as above; settings: 0 is no effect, 100 is complete control
How it was run: as §1

[5] = tested on: ragweed (common ragweed, Ambrosia elatior); experiment: as above; settings: 0 is no effect, 100 is complete control
How it was run: as §1

[6] = tested on: ryegrass, It. (Italian ryegrass, Lolium multiflorum); experiment: as above; settings: 0 is no effect, 100 is complete control
How it was run: as §1

[7] = tested on: barnyardgrass (Echinochloa crus-galli); experiment: Test B flooded paddy test, visual rating; settings: Flood, 250 g ai/ha, applied to paddy water, rated after 13 to 15 d
How it was run: (§2)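 Plants grown to the 2-leaf stage. At treatment, pots were flooded to 3 cm above the soil, compound was applied directly to the paddy water, and that depth was held throughout. After 13 to 15 d in the greenhouse, response was rated visually against controls on a 0 (no effect) to 100 (complete control) scale.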

[8] = tested on: ducksalad (Heteranthera limosa); experiment: Test B flooded paddy test, visual rating; settings: Flood, 250 g ai/ha, applied to paddy water, rated after 13 to 15 d
How it was run: as §2

rice (Oryza sativa) = experiment: Test B flooded paddy test, visual rating; settings: Flood, 250 g ai/ha, applied to paddy water, rated after 13 to 15 d
How it was run: as §2

[9] = tested on: sedge, umbrella (small-flower umbrella sedge, Cyperus difformis); experiment: Test B flooded paddy test, visual rating; settings: Flood, 250 g ai/ha, applied to paddy water, rated after 13 to 15 d
How it was run: as §2

[10] = tested on: barnyardgrass (Echinochloa crus-galli); experiment: Test A postemergence application, visual injury rating; settings: 0 to 100 scale, 0 no effect, 100 complete control
How it was run: as §1

[11] = tested on: blackgrass (Alopecurus myosuroides); experiment: as above; settings: 0 to 100 scale, 0 no effect, 100 complete control
How it was run: as §1

corn (Zea mays) = experiment: as above; settings: for Corn plant response rating: 0 to 100 scale, 0 no effect, 100 complete control
How it was run: as §1

[12] = tested on: foxtail, giant (giant foxtail, Setaria faberii); experiment: as above; settings: for Foxtail, Giant plant response rating: 0 to 100 scale, 0 no effect, 100 complete control
How it was run: as §1

[13] = tested on: galium (catchweed bedstraw, Galium aparine); experiment: as above; settings: for Galium plant response rating: 0 to 100 scale, 0 no effect, 100 complete control
How it was run: as §1

kochia (Kochia scoparia) [14] = experiment: as above; settings: for Kochia plant response rating: 0 to 100 scale, 0 no effect, 100 complete control
How it was run: as §1

[15] = tested on: pigweed (Amaranthus retroflexus); experiment: as above; settings: for Pigweed plant response rating: 0 to 100 scale, 0 no effect, 100 complete control
How it was run: as §1

[16] = tested on: ragweed (common ragweed, Ambrosia elatior); experiment: as above; settings: for Ragweed plant response rating: 0 to 100 scale, 0 no effect, 100 complete control
How it was run: as §1

[17] = tested on: ryegrass, It. (Italian ryegrass, Lolium multiflorum); experiment: as above; settings: for Ryegrass, It. plant response rating: 0 to 100 scale, 0 no effect, 100 complete control
How it was run: as §1

[18] = tested on: wheat (Triticum aestivum); experiment: as above; settings: for Wheat plant response rating: 0 to 100 scale, 0 no effect, 100 complete control
How it was run: as §1

[19] = 31 g ai/ha, 0 is no effect, 100 is complete control

Row | Structure (SMILES) | Plant response rating (0 to 100 scale), Barnyardgrass ([1]; 31 g ai/ha) | Plant response rating (0 to 100 scale), Barnyardgrass ([1]; 125 g ai/ha) | Plant response rating (0 to 100 scale), Foxtail, Giant ([2]; 31 g ai/ha) | Plant response rating (0 to 100 scale), Foxtail, Giant ([2]; 125 g ai/ha) | Plant response rating (0 to 100 scale), Kochia (kochia (Kochia scoparia) [3]; 31 g ai/ha) | Plant response rating (0 to 100 scale), Kochia (kochia (Kochia scoparia) [3]; 125 g ai/ha) | Plant response rating (0 to 100 scale), Pigweed ([4]; 31 g ai/ha) | Plant response rating (0 to 100 scale), Pigweed ([4]; 125 g ai/ha) | Plant response rating (0 to 100 scale), Ragweed ([5]; 31 g ai/ha) | Plant response rating (0 to 100 scale), Ragweed ([5]; 125 g ai/ha) | Plant response rating (0 to 100 scale), Ryegrass, It. ([6]; 31 g ai/ha) | Plant response rating (0 to 100 scale), Ryegrass, It. ([6]; 125 g ai/ha) | Barnyardgrass plant response rating (0 to 100 scale, 0 is no effect, 100 is complete control) [7] | Ducksalad plant response rating (0 to 100 scale, 0 is no effect, 100 is complete control) [8] | Rice plant response rating (0 to 100 scale, 0 is no effect, 100 is complete control) (rice (Oryza sativa)) | Sedge, Umbrella plant response rating (0 to 100 scale, 0 is no effect, 100 is complete control) [9] | Barnyardgrass plant response rating ([10]; 31 g ai/ha) | Barnyardgrass plant response rating ([10]; 125 g ai/ha) | Blackgrass plant response rating ([11]; 31 g ai/ha) | Blackgrass plant response rating ([11]; 125 g ai/ha) | other results
1 | COC(=O)Oc1c(C)nn(C)c(=O)c1-c1ccc(Cl)c2oc(C)cc12 [Compound 53] | 0 | 30 | 0 | 0 | 0 | 0 | 0 | 40 | 20 | 0 | 0 | 60 | 0 | 0 | 0 | 0 | 0 | 10 | 0 | 0 | Corn plant response rating (corn (Zea mays); 31 g ai/ha): 0; Corn plant response rating (corn (Zea mays); 125 g ai/ha): 0; Foxtail, Giant plant response rating ([12]; 31 g ai/ha): 0; Foxtail, Giant plant response rating ([12]; 125 g ai/ha): 0; Galium plant response rating ([13]; 31 g ai/ha): 60; Galium plant response rating ([13]; 125 g ai/ha): 80; Kochia plant response rating (kochia (Kochia scoparia) [14]; 31 g ai/ha): 0; Kochia plant response rating (kochia (Kochia scoparia) [14]; 125 g ai/ha): 0; Pigweed plant response rating ([15]; 31 g ai/ha): 30; Pigweed plant response rating ([15]; 125 g ai/ha): 50; Ragweed plant response rating ([16]; 31 g ai/ha): 0; Ragweed plant response rating ([16]; 125 g ai/ha): 30; Ryegrass, It. plant response rating ([17]; 31 g ai/ha): 10; Ryegrass, It. plant response rating ([17]; 125 g ai/ha): 30; Wheat plant response rating ([18]; 31 g ai/ha): 0; Wheat plant response rating ([18]; 125 g ai/ha): 0
2 | CC(=O)Oc1c(C)nn(C)c(=O)c1-c1ccc(Cl)c2oc(C)cc12 [Compound 54] | 0 | 0 | 0 | 0 | 0 | 0 | 0 | 20 | 0 | 10 | 30 | 50 | 0 | 0 | 0 | 70 | 0 | 0 | 0 | 0 | Corn plant response rating (corn (Zea mays); 31 g ai/ha): 0; Corn plant response rating (corn (Zea mays); 125 g ai/ha): 0; Foxtail, Giant plant response rating ([12]; 31 g ai/ha): 0; Foxtail, Giant plant response rating ([12]; 125 g ai/ha): 0; Galium plant response rating ([13]; 31 g ai/ha): 50; Galium plant response rating ([13]; 125 g ai/ha): 70; Kochia plant response rating (kochia (Kochia scoparia) [14]; 31 g ai/ha): 0; Kochia plant response rating (kochia (Kochia scoparia) [14]; 125 g ai/ha): 10; Pigweed plant response rating ([15]; 31 g ai/ha): 30; Pigweed plant response rating ([15]; 125 g ai/ha): 40; Ragweed plant response rating ([16]; 31 g ai/ha): 0; Ragweed plant response rating ([16]; 125 g ai/ha): 0; Ryegrass, It. plant response rating ([17]; 31 g ai/ha): 20; Ryegrass, It. plant response rating ([17]; 125 g ai/ha): 60; Wheat plant response rating ([18]; 31 g ai/ha): 0; Wheat plant response rating ([18]; 125 g ai/ha): 0
3 | Cc1nn(C)c(=O)c(-c2ccc(Cl)c3ccsc23)c1O [Compound 55] | 0 | 0 | 0 | 0 | 0 | 20 | 0 | 60 | 0 | 0 | 80 | 100 | 0 | 0 | 0 | 0 | 0 | 10 | 0 | 10 | Corn plant response rating (corn (Zea mays); 31 g ai/ha): 0; Corn plant response rating (corn (Zea mays); 125 g ai/ha): 0; Foxtail, Giant plant response rating ([12]; 31 g ai/ha): 0; Foxtail, Giant plant response rating ([12]; 125 g ai/ha): 0; Galium plant response rating ([13]; 31 g ai/ha): 80; Galium plant response rating ([13]; 125 g ai/ha): 100; Kochia plant response rating (kochia (Kochia scoparia) [14]; 31 g ai/ha): 40; Kochia plant response rating (kochia (Kochia scoparia) [14]; 125 g ai/ha): 100; Pigweed plant response rating ([15]; 31 g ai/ha): 30; Pigweed plant response rating ([15]; 125 g ai/ha): 60; Ragweed plant response rating ([16]; 31 g ai/ha): 0; Ragweed plant response rating ([16]; 125 g ai/ha): 30; Ryegrass, It. plant response rating ([17]; 31 g ai/ha): 40; Ryegrass, It. plant response rating ([17]; 125 g ai/ha): 70; Wheat plant response rating ([18]; 31 g ai/ha): 0; Wheat plant response rating ([18]; 125 g ai/ha): 0
4 | Cc1nn(C)c(=O)c(-c2ccc(Cl)c3sccc23)c1OC(=O)c1ccccc1 [Compound 57] | 0 | 0 | 0 | 0 | 50 | 0 | 0 | 0 | 0 | 0 | 0 | 10 | 0 | 0 | 0 | 0 | 0 | 0 | 0 | 0 | Corn plant response rating (corn (Zea mays); 31 g ai/ha): 0; Corn plant response rating (corn (Zea mays); 125 g ai/ha): 0; Foxtail, Giant plant response rating ([12]; 31 g ai/ha): 0; Foxtail, Giant plant response rating ([12]; 125 g ai/ha): 0; Galium plant response rating ([13]; 31 g ai/ha): 0; Galium plant response rating ([13]; 125 g ai/ha): 0; Kochia plant response rating (kochia (Kochia scoparia) [14]; 31 g ai/ha): 0; Kochia plant response rating (kochia (Kochia scoparia) [14]; 125 g ai/ha): 0; Pigweed plant response rating ([15]; 31 g ai/ha): 0; Pigweed plant response rating ([15]; 125 g ai/ha): 0; Ragweed plant response rating ([16]; 31 g ai/ha): 0; Ragweed plant response rating ([16]; 125 g ai/ha): 0; Ryegrass, It. plant response rating ([17]; 31 g ai/ha): 0; Ryegrass, It. plant response rating ([17]; 125 g ai/ha): 0; Wheat plant response rating ([18]; 31 g ai/ha): 0; Wheat plant response rating ([18]; 125 g ai/ha): 0
5 | COC(=O)Oc1c(C)nn(C)c(=O)c1-c1ccc(Cl)c2sccc12 [Compound 59] | 0 | 0 | 0 | 0 | 10 | 20 | 0 | 0 | 50 | 30 | 10 | 10 | 0 | 0 | 20 | 0 | 0 | 0 | 0 | 0 | Plant response rating (0 to 100 scale), Corn (corn (Zea mays); [19]): 0; Corn plant response rating (corn (Zea mays); 125 g ai/ha): 20; Plant response rating (0 to 100 scale), Foxtail, Giant [12, 19]: 0; Foxtail, Giant plant response rating ([12]; 125 g ai/ha): 0; Plant response rating (0 to 100 scale), Galium [13, 19]: 20; Galium plant response rating ([13]; 125 g ai/ha): 80; Plant response rating (0 to 100 scale), Kochia (kochia (Kochia scoparia) [14]; [19]): 0; Kochia plant response rating (kochia (Kochia scoparia) [14]; 125 g ai/ha): 60; Plant response rating (0 to 100 scale), Pigweed [15, 19]: 0; Pigweed plant response rating ([15]; 125 g ai/ha): 30; Plant response rating (0 to 100 scale), Ragweed [16, 19]: 0; Ragweed plant response rating ([16]; 125 g ai/ha): 0; Plant response rating (0 to 100 scale), Ryegrass, It. [17, 19]: 0; Ryegrass, It. plant response rating ([17]; 125 g ai/ha): 10; Plant response rating (0 to 100 scale), Wheat [18, 19]: 0; Wheat plant response rating ([18]; 125 g ai/ha): 0
